Reference: patent US4648996A, “Phenyl substituted-2,4,6,8-nonatetraenoic acid” (Hoffmann-La Roche Inc., priority 1985, dated 1987)

Legend:
[1] = in vivo; conditions: mouse
From the text: The compounds of formulae I and II and salts thereof can be utilized to treat patients suffering from rheumatoid arthritis and related disorders.

[2] = system: carrageenan pleurisy in rats; assay: Non-immune inflammation, 4 hr carrageenan pleurisy; format: in vivo, Female Alderley Park Strain 1 rats; conditions: 10 days
Description: Female Alderley Park Strain 1 rats weighing 170-205 g. at the start of the experiment were used.
Lambda-carrageenan. Prepared as a solution in saline and sterilized by autoclaving.
Compound A was administered orally to groups of 8 rats once daily for 10 days at doses of 10, 30 and 100 mg.kg^-1. Control animals received the vehicle. One hour after the last dose the animals were anesthetised with methohexitone (Brietal, 50 mg.kg^-1) and 0.2 ml of 1% lambda carrageenan was injected into the pleural cavity. Four hours later the animals were killed with an overdose of pentobarbitone (Sagatal), the pleural exudate was collected and the pleural cavity was washed out with 2 ml of phosphate-buffered saline (PBS-A, Oxoid). The exudate volume was recorded and cell counts were determined using an automatic cell counter (Coulter). Differential cell counts were performed on exudate smears stained with Giemsa stain in order to determine separately the numbers of polymorphonuclear leucocytes (PMN) and mononuclear cells (MN).
Immediately after recovery of the pleural exudates the tibiae of the animals were excised and their breaking strains were determined.
The body weights of the animals were recorded daily. Statistical analyses were performed using Student's two-tailed t test.

[3] = system: type II collagen arthritis in rats; assay: Established type II collagen arthritis; format: in vivo, Male and female Alderley Park Strain 1 rats; conditions: for Paw Vol / wt / GAG (urine glycosaminoglycans): 100 mg.kg^-1 p.o.
Description: Male and female Alderley Park Strain 1 rats.
Type 2 collagen (prepared from bovine nasal septum cartilage), Freunds incomplete adjuvant (Difco).
Rats were sensitized to type 2 collagen by injecting them intradermally with 1 ml. of a water in oil emulsion consisting of equal parts of a 1 mg.ml^-1 solution of type 2 collagen in 0.45M NaCl, 0.02M Tris, pH 7.4 and Freunds incomplete adjuvant. Rats developing arthritis were allocated on day 15 post sensitization to a control arachis oil treated group (6 male, 4 female) or to the Compound A treated group (6 male, 5 female). Hind paw volume measurements were taken to ensure even distribution of rats between groups. An overnight collection of urine was made on days 15/16 and dosing commenced on day 16. These urine samples were analyzed for glycosaminoglycans (GAG). Compound A was dosed at 100 mg.kg^-1 p.o. On days 19/20 a second overnight collection of urine was made. These urine samples were analyzed for glycosaminoglycans (GAG). On day 20 a second hind paw measurement was taken. Rats were then anaesthetised with sodium pentobarbitone, bled, killed and X-rays taken of hind and forepaws. Rats were dosed on days 16-19 inclusive (4 doses).

[4] = system: impregnated sponge granuloma in the rat; assay: Impregnated sponge granuloma test in the rat; format: in vivo, AHH/R female rats (PVG derived)
Description: AHH/R female rats (PVG derived) with an initial weight range of 120-140 g. were used.
Sponge preparation. Pellets (6.5 mm diameter) were punched from cellulose sponge cloth ("Wettex") and 0.1 ml. of a suspension containing 0.5 mg.ml^-1 of heat killed M. tuberculosis (human strains C, DT and PN) in sterile saline was applied to each pellet. The pellets were dried, weighed and autoclaved.
Rats were randomly divided into groups of five and daily dosing with test compounds was commenced. After the fifth dose the rats were anaesthetised with Sagatal (45 mg.kg^-1 i.p.) the backs were shaved and two pellets were implanted subcutaneously (one each side) into each rat through a small dorsal midline incision. The incision was closed and the rats allowed to recover from the anaesthetic.
Seven days after implantation the rats were killed and the pellets were removed, dissected free of extraneous tissue and weighed. Each pellet was then placed in a 4 ml aliquot of distilled water, chopped with fine scissors and sonicated. After centrifugation the Na^+ and K^+ content of the supernatant was determined by flame photometry. In addition the adrenal and thumus glands from each rat were dissected out and weighed and the lower hind limbs were removed for measurement of tibial bone breaking strain. Body weights were also recorded throughout the test period.
The mean ± SE for each of the parameters was calculated and differences from the control values were determined by Student's t test (2-tailed). Percentage reductions of granuloma weight, Na^+ and K^+ content and percentage changes of adrenal and thymus, weight and tibial breaking strain were determined.

SMILES: CCCCCCCCCOc1ccccc1/C=C/C(C)=C/C=C/C(C)=C/C(=O)O [Compound A, All(E)-9-[2(nonyloxy)phenyl]-3,7-dimethyl-2,4,6,8-nonatetraenoic acid]
- LD50 ([1]; ip): > 1000 mg/kg
- LD50 ([1]; po): > 1000 mg/kg
- Exudate Volume ([2]; 10 mg per kg per day p.o.): 0.94 mL
- Exudate Volume % change ([2]; 10 mg per kg per day p.o.): -32.8%
- Tibial Breaking Strain (Right + Left) % change ([2]; 10 mg per kg per day p.o.): -3.4%
- Tibial Breaking Strain (Right + Left) Mean ([2]; 10 mg per kg per day p.o.): 6.5 kg
- Total Cell Count ([2]; 10 mg per kg per day p.o.): 120.8 ×10^6
- Total Cell Count % change ([2]; 10 mg per kg per day p.o.): -6.5%
- Total MN ([2]; 10 mg per kg per day p.o.): 8.4 ×10^6
- Total MN % change ([2]; 10 mg per kg per day p.o.): -17.4%
- Total PMN ([2]; 10 mg per kg per day p.o.): 112.4 ×10^6
- Total PMN % change ([2]; 10 mg per kg per day p.o.): -5.6%
- Exudate Volume ([2]; 30 mg per kg per day p.o.): 0.88 mL
- Exudate Volume % change ([2]; 30 mg per kg per day p.o.): -36.9%
- Tibial Breaking Strain (Right + Left) % change ([2]; 30 mg per kg per day p.o.): +1.5%
- Tibial Breaking Strain (Right + Left) Mean ([2]; 30 mg per kg per day p.o.): 6.8 kg
- Total Cell Count ([2]; 30 mg per kg per day p.o.): 112.1 ×10^6
- Total Cell Count % change ([2]; 30 mg per kg per day p.o.): -13.3%
- Total MN ([2]; 30 mg per kg per day p.o.): 7.9 ×10^6
- Total MN % change ([2]; 30 mg per kg per day p.o.): -23.1%
- Total PMN ([2]; 30 mg per kg per day p.o.): 104.2 ×10^6
- Total PMN % change ([2]; 30 mg per kg per day p.o.): -12.4%
- Exudate Volume ([2]; 100 mg per kg per day p.o.): 0.80 mL
- Exudate Volume % change ([2]; 100 mg per kg per day p.o.): -42.9%
- Tibial Breaking Strain (Right + Left) % change ([2]; 100 mg per kg per day p.o.): -0.3%
- Tibial Breaking Strain (Right + Left) Mean ([2]; 100 mg per kg per day p.o.): 6.7 kg
- Total Cell Count ([2]; 100 mg per kg per day p.o.): 109.1 ×10^6
- Total Cell Count % change ([2]; 100 mg per kg per day p.o.): -15.7%
- Total MN ([2]; 100 mg per kg per day p.o.): 7.5 ×10^6
- Total MN % change ([2]; 100 mg per kg per day p.o.): -26.7%
- Total PMN ([2]; 100 mg per kg per day p.o.): 101.6 ×10^6
- Total PMN % change ([2]; 100 mg per kg per day p.o.): -14.7%
- Paw Vol ([3]; day 16 (start of dosing)): 2.44 ± 0.08
- wt ([3]; day 16 (start of dosing)): 247 ± 14 g
- GAG (urine glycosaminoglycans) ([3]; day 16 (urine days 15/16)): 1586 ± 307 µg
- GAG (urine glycosaminoglycans) ([3]; day 20 (urine days 19/20)): 634 ± 72 µg
- Paw Vol ([3]; day 20, after 4 doses): 2.66 ± 0.06
- wt ([3]; day 20, after 4 doses): 229 ± 10 g
- weight during treatment (in words) ([3]; male and female rats, 100 mg.kg^-1): lost weight
- % reduction of granuloma K+ ([4]; 15 mg.kg^-1 p.o.): -6.9%
- % reduction of granuloma Na+ ([4]; 15 mg.kg^-1 p.o.): 14.5%
- % reduction of granuloma Wet weight ([4]; 15 mg.kg^-1 p.o.): 15.1%
- % reduction of granuloma K+ ([4]; 45 mg.kg^-1 p.o.): 0.8%
- % reduction of granuloma Na+ ([4]; 45 mg.kg^-1 p.o.): 11%
- % reduction of granuloma Wet weight ([4]; 45 mg.kg^-1 p.o.): 10.8%
